Source: ChEMBL document CHEMBL3244338, “Antineoplastic agents. Structure-activity relationship study of bis(substituted aminoalkylamino)anthraquinones” (J Med Chem, 1978)
Calls of active or inactive are those of the source. No cut-off for these calls is given here.

Key:
[1] = tested on: P388; assay: Antitumor activity against mouse P388 cells allografted in BDF1 mouse assessed as increase in survival time at 32 mg/kg administered 24 hrs post challenge relative to control; format: functional
[2] = tested on: P388; assay: Antitumor activity against mouse P388 cells allografted in BDF1 mouse assessed as mouse survival at 32 mg/kg administered 24 hrs post challenge relative to control; format: functional, organism-based; design: dose 32 mg/kg
[3] = tested on: Mus musculus; assay: Toxicity in mouse P388 cells allografted BDF1 mouse assessed as body weight difference at 4 mg/kg administered 24 hrs post challenge relative to control; format: organism-based; design: dose 4 mg/kg; settings: in vivo
[4] = tested on: L1210; assay: Antitumor activity against mouse L1210 cells allografted in BDF1 mouse assessed as increase in survival time at 25 mg/kg administered 24 hrs post challenge relative to control; format: functional
[5] = tested on: Mus musculus; assay: Toxicity in mouse P388 cells allografted BDF1 mouse assessed as body weight difference at 8 mg/kg administered 24 hrs post challenge relative to control; format: organism-based; design: dose 8 mg/kg; settings: in vivo
[6] = tested on: P388; assay: Antitumor activity against mouse P388 cells allografted in BDF1 mouse assessed as mouse survival at 16 mg/kg administered 24 hrs post challenge relative to control; format: functional, organism-based; design: dose 16 mg/kg
[7] = tested on: L1210; assay: Antitumor activity against mouse L1210 cells allografted in BDF1 mouse assessed as increase in survival time at 12.5 mg/kg administered 24 hrs post challenge relative to control; format: functional
[8] = tested on: P388; assay: Antitumor activity against mouse P388 cells allografted in BDF1 mouse assessed as increase in survival time at 8 mg/kg administered 24 hrs post challenge relative to control; format: functional
[9] = tested on: P388; assay: Antitumor activity against mouse P388 cells allografted in BDF1 mouse assessed as increase in survival time at 4 mg/kg administered 24 hrs post challenge relative to control; format: functional
[10] = tested on: P388; assay: Antitumor activity against mouse P388 cells allografted in BDF1 mouse assessed as mouse survival at 8 mg/kg administered 24 hrs post challenge relative to control; format: functional, organism-based; design: dose 8 mg/kg
[11] = tested on: P388; assay: Antitumor activity against mouse P388 cells allografted in BDF1 mouse assessed as increase in survival time at 16 mg/kg administered 24 hrs post challenge relative to control; format: functional
[12] = tested on: P388; assay: Antitumor activity against mouse P388 cells allografted in BDF1 mouse assessed as mouse survival at 4 mg/kg administered 24 hrs post challenge relative to control; format: functional, organism-based; design: dose 4 mg/kg
[13] = tested on: L1210; assay: Antitumor activity against mouse L1210 cells allografted in BDF1 mouse assessed as increase in survival time at 6.25 mg/kg administered 24 hrs post challenge relative to control; format: functional
[14] = tested on: Mus musculus; assay: Toxicity in mouse P388 cells allografted BDF1 mouse assessed as body weight difference at 16 mg/kg administered 24 hrs post challenge relative to control; format: organism-based; design: dose 16 mg/kg; settings: in vivo
[15] = tested on: Mus musculus; assay: Toxicity in mouse P388 cells allografted BDF1 mouse assessed as body weight difference at 32 mg/kg administered 24 hrs post challenge relative to control; format: organism-based; design: dose 32 mg/kg; settings: in vivo
[16] = tested on: Mus musculus; assay: Toxicity in mouse P388 cells allografted BDF1 mouse assessed as body weight difference at 0.12 mg/kg administered 24 hrs post challenge relative to control; format: organism-based; design: dose 0.12 mg/kg; settings: in vivo
[17] = tested on: P388; assay: Antitumor activity against mouse P388 cells allografted in BDF1 mouse assessed as mouse survival at 2 mg/kg administered 24 hrs post challenge relative to control; format: functional, organism-based; design: dose 2 mg/kg
[18] = tested on: Mus musculus; assay: Toxicity in mouse P388 cells allografted BDF1 mouse assessed as body weight difference at 0.25 mg/kg administered 24 hrs post challenge relative to control; format: organism-based; design: dose 0.25 mg/kg; settings: in vivo
[19] = tested on: P388; assay: Antitumor activity against mouse P388 cells allografted in BDF1 mouse assessed as increase in survival time at 0.5 mg/kg administered 24 hrs post challenge relative to control; format: functional
[20] = tested on: Mus musculus; assay: Toxicity in mouse P388 cells allografted BDF1 mouse assessed as body weight difference at 0.06 mg/kg administered 24 hrs post challenge relative to control; format: organism-based; design: dose 0.06 mg/kg; settings: in vivo
[21] = tested on: P388; assay: Antitumor activity against mouse P388 cells allografted in BDF1 mouse assessed as increase in survival time at 1 mg/kg administered 24 hrs post challenge relative to control; format: functional
[22] = tested on: P388; assay: Antitumor activity against mouse P388 cells allografted in BDF1 mouse assessed as mouse survival at 0.06 mg/kg administered 24 hrs post challenge relative to control; format: functional, organism-based; design: dose 0.06 mg/kg
[23] = tested on: P388; assay: Antitumor activity against mouse P388 cells allografted in BDF1 mouse assessed as increase in survival time at 0.06 mg/kg administered 24 hrs post challenge relative to control; format: functional
[24] = tested on: Mus musculus; assay: Toxicity in mouse P388 cells allografted BDF1 mouse assessed as body weight difference at 0.5 mg/kg administered 24 hrs post challenge relative to control; format: organism-based; design: dose 0.5 mg/kg; settings: in vivo
[25] = tested on: Mus musculus; assay: Toxicity in mouse P388 cells allografted BDF1 mouse assessed as body weight difference at 2 mg/kg administered 24 hrs post challenge relative to control; format: organism-based; design: dose 2 mg/kg; settings: in vivo
[26] = tested on: Mus musculus; assay: Toxicity in mouse P388 cells allografted BDF1 mouse assessed as body weight difference at 1 mg/kg administered 24 hrs post challenge relative to control; format: organism-based; design: dose 1 mg/kg; settings: in vivo
[27] = tested on: P388; assay: Antitumor activity against mouse P388 cells allografted in BDF1 mouse assessed as mouse survival at 0.12 mg/kg administered 24 hrs post challenge relative to control; format: functional, organism-based; design: dose 0.12 mg/kg
[28] = tested on: P388; assay: Antitumor activity against mouse P388 cells allografted in BDF1 mouse assessed as increase in survival time at 0.12 mg/kg administered 24 hrs post challenge relative to control; format: functional
[29] = tested on: P388; assay: Antitumor activity against mouse P388 cells allografted in BDF1 mouse assessed as mouse survival at 0.25 mg/kg administered 24 hrs post challenge relative to control; format: functional, organism-based; design: dose 0.25 mg/kg
[30] = tested on: B16; assay: Antitumor activity against mouse B16 cells allografted in BDF1 mouse assessed as increase in survival time at 1 mg/kg administered 24 hrs post challenge relative to control; format: functional
[31] = tested on: P388; assay: Antitumor activity against mouse P388 cells allografted in BDF1 mouse assessed as increase in survival time at 0.25 mg/kg administered 24 hrs post challenge relative to control; format: functional
[32] = tested on: B16; assay: Antitumor activity against mouse B16 cells allografted in BDF1 mouse assessed as increase in survival time at 0.5 mg/kg administered 24 hrs post challenge relative to control; format: functional
[33] = tested on: P388; assay: Antitumor activity against mouse P388 cells allografted in BDF1 mouse assessed as increase in survival time at 2 mg/kg administered 24 hrs post challenge relative to control; format: functional
[34] = tested on: P388; assay: Antitumor activity against mouse P388 cells allografted in BDF1 mouse assessed as mouse survival at 0.5 mg/kg administered 24 hrs post challenge relative to control; format: functional, organism-based; design: dose 0.5 mg/kg

For `O=C1c2ccccc2C(=O)c2c(NCCNCCO)ccc(NCCNCCO)c21` [AMETANTRONE], the T/C [1] was 81%, the Activity [2] was “Active” and the Activity [3] was 0 g. The T/C [4] was 272%, the Activity [5] was -2 g and the Activity [6] was “Active”. The T/C [7] was 227%, the T/C [8] was 276% and the T/C [9] was 275%. The Activity [10] was “Active”, the T/C [11] was 275% and the Activity [12] was “Active”. It also gave a T/C [13] of 156%, an Activity [14] of -3.9 g and an Activity [15] of -5.9 g.
In the case of `O=C1c2c(O)ccc(O)c2C(=O)c2c(NCCNCCO)ccc(NCCNCCO)c21` [MITOXANTRONE], the Activity [16] is reported as -1.4 g, the Activity [17] is reported as “Active” and the Activity [18] is reported as -2.3 g. It also gave a T/C [19] of 299%, an Activity [20] of -1.7 g and a T/C [21] of 277%. For the same molecule, the Activity [22] was “Active”, the T/C [23] was 208% and the Activity [24] was -2 g. The Activity [25] was -0.6 g, the Activity [26] was -0.6 g and the Activity [27] was “Active”. The T/C [28] was 200%, the Activity [29] was “Active” and the T/C [30] was 503%. The T/C [31] was 280%, the T/C [32] was 466% and the T/C [33] was 280%. For the same molecule, the Activity [34] was “Active”.
